We go through five molecules from patent US5837548A, “Treatment of inflammation by inhibition of lipid body formation” (Beth Israel Hospital, priority 1995, dated 1998).

The test system of one data set is human eosinophils. Conditions: receptor-mediated; cited from earlier work.
For data set [1], the system named is human neutrophils. Conditions: cited from earlier work.
For a further data set, the system named is human leukocytes. Description: cytotoxicity / cell viability by trypan blue dye exclusion. Format: cell-based. Conditions: neutrophils. The procedure:
(§1) Human leukocytes (10^6 cells/mL) were incubated with varying concentrations of arachidonic acid (AA), oleic acid (OA) or vehicle at 37° C. in a 5% CO2 /95% O2 atmosphere, and after 1 hour leukocytes (10^5 cells per slide) were cytocentrifuged (550 rpm, 5 min) onto glass slides. During inhibitory studies, neutrophils were pretreated for 1 hour with varying concentrations of enzyme inhibitors, protein synthesis inhibitors, or vehicle as indicated. When PKC inhibitors were used, the pre-incubation time was reduced to 30 minutes to avoid toxic effects to the cells. The cell viability, determined by trypan blue dye exclusion at the end of each experiment, was always greater than 90%. Stock solutions for A23187, D609, U-73122, and indomethacin were prepared in DMSO and stored at -20° C. Aliquots were diluted in Ca^++ /Mg^++ fee HBSS to the indicated concentration immediately prior to use. The final DMSO concentration was always lower than 0.1% and had no effect on lipid body numbers. […] The morphology of fixed cells was observed, and lipid bodies were enumerated with phase contrast microscopy and a 100× objective lens in 50 consecutively scanned leukocytes.

Data set [2] has as its system human neutrophils. Description: cis-unsaturated fatty acid-induced lipid body formation in human neutrophils (osmium staining, light microscopy enumeration). Format: cell-based. The note with it: for inhibition at 1 µM / inhibition at 10 µM: Homo sapiens, Neutrophil, basal subtracted; for inhibition of arachidonic acid-induced lipid body formation / inhibition of oleic acid-induced lipid body formation: human neutrophils, staurosporine 0.1-1.0 μM, aspirin 10 μg/mL, others as in Tables 1 and 2; for effect on numbers of preformed lipid bodies: neutrophils. The procedure: Neutrophils were purified from fresh human blood obtained by venipuncture from healthy adult volunteers and collected into acidified citrate. After addition of 6% dextran 70 (McGaw, Irvine, Calif.), RBCs were allowed to sediment for 1 hour at room temperature. The leukocyte-rich supernatant was overlaid onto an equal volume of Ficoll-Paque gradient (Piscataway, N.J.), and centrifuged at 400×g for 20 min. […] Residual RBCs were lysed with hypotonic saline.
as §1, with “The cell viability, determined by trypan blue dye exclusion at the end of each experiment, was always greater than 90%.” left out, “use.” for “use. The final DMSO concentration was always lower than 0.1% and had no effect on lipid body numbers.”
Results were expressed as mean±SEM and were analyzed statistically by means of the analysis of variance followed by the Newman-Keuls-Student test with the level of significance set at p<0.05. Correlation coefficients were determined by linear regression, and correlation analysis was performed by Fisher's r to z transformation with the level of significance set at p<0.05.
^1 Neutrophils (10^6 /ml) were pretreated with protein kinase C
(actinomycin D, cycloheximide) for 30 min or with phospholipase C
inhibitors (D609, U73122) for 1 h. The cells were then stimulated with
vehicle, arachidonic acid (15 μM), or oleic acid (10 μM), for 1 h.
Results are mean ± SEM from fifty consecutively counted neutrophils.
Statistically significant differences between the agonist alone and the
inhibitor are represented by an asterisk(*). Percent inhibition has been
calculated after subtracting out the basal number of lipid bodies/PMN
present prior to stimulation.
^1 Neutrophils (10^6 /ml) were pretreated with the NSAID or
vehicle for 1 h then stimulated with vehicle, arachidonic acid, or oleic
± SEM from fifty consecutively counted neutrophils. Statistically
significant differences between the agonist alone and the NSAID are
represented by an asterisk (*). Percent inhibition has been calculated
after subtracting out the basal number of lipid bodies/PMN present prior

The mark [3] stands for this setting: arachidonic acid 15 μM, inhibitor 1 μM.
Setting [4] is: arachidonic acid 15 μM, inhibitor 10 μM.
Setting [5] is: oleic acid 10 μM, inhibitor 1 μM.
Where [6] appears, read: oleic acid 10 μM, inhibitor 10 μM.

Read-outs that look alike come from different tables or passages of the source. *1 amine or outer side, *2 acyl side, *3 side chain or, on linkers, in order; H or OH if unused. Where a SMILES comes first, the peptide text is derived from it. Bridges are numbered along the chain shown (N, C = ends). Roman numbers before positions name the chains, in order. [ ]: non-standard residue; d: D form. Actinocin(9to1) = Cc1c2oc3c(C)ccc(C(=O)[*:1])c3nc-2c(C(=O)[*:2])c(N)c1=O; NMeV = CN[CH](C(=O)O)C(C)C; Sar = CNCC(=O)O

Turning to `CCCCC/C=C\C[C@H](O)/C=C/C=C\C/C=C\CCCC(=O)O` [12-HETE], the “induction of lipid body formation” value in the data set on human eosinophils and in the data set with human neutrophils [1] was “elicit lipid body formation” in each case.
In the case of `CCCCC[C@H](O)/C=C/C=C\C/C=C\C/C=C\CCCC(=O)O` [15-HETE], the “induction of lipid body formation” value in the data set with human eosinophils and with human neutrophils [1] was “elicit lipid body formation” throughout.
The term inhibition denotes the share of the control response that was lost under treatment. Consider `Cc1c2oc3c(C)ccc(C(=O)NC4C(=O)NC(C(C)C)C(=O)N5CCCC5C(=O)N(C)CC(=O)N(C)C(C(C)C)C(=O)OC4C)c3nc-2c(C(=O)NC2C(=O)NC(C(C)C)C(=O)N3CCCC3C(=O)N(C)CC(=O)N(C)C(C(C)C)C(=O)OC2C)c(N)c1=O` (stereo not shown) [actinomycin D] (I: TVP[Sar][NMeV] / II: TVP[Sar][NMeV]; ester I:1-I:C, II:1-II:C; linker I:N-II:N via Actinocin(9to1); configuration not given here), for which, in the data set with human leukocytes, the “cytotoxicity” value is given as “not cytotoxic”. Further, the inhibition at 1 µM came out at 47% in the data set with human neutrophils [2] (arachidonic acid 15 μM, inhibitor 1 μM, read-out: % inhibition) and 26% in the data set on human neutrophils [2] (oleic acid 10 μM, inhibitor 1 μM, read-out: % inhibition). The inhibition at 10 µM in the data set on human neutrophils [2] (arachidonic acid 15 μM, inhibitor 10 μM, read-out: % inhibition) stood at 64%; in the data set on human neutrophils [2] (oleic acid 10 μM, inhibitor 10 μM, read-out: % inhibition), 42%. The “lipid bodies (mean ± SEM)/cell” value in the data set on human neutrophils [2] (setting [3]) was 8.4 ± 0.3 lipid bodies/cell; in the data set with human neutrophils [2] (setting [4]) it was 7.6 ± 0.3 lipid bodies/cell; in the data set on human neutrophils [2] (setting [5]) it was 8.8 ± 0.3 lipid bodies/cell; in the data set on human neutrophils [2] (setting [6]) it was 8.1 ± 0.3 lipid bodies/cell. Further, the “inhibition of arachidonic acid-induced lipid body formation” value with human neutrophils [2] is on record as “significantly inhibited”. Besides, the “inhibition of oleic acid-induced lipid body formation” value with human neutrophils [2] is reported as “significantly inhibited”. Further, the “effect on numbers of preformed lipid bodies” value in the data set on human neutrophils [2] was “did not alter numbers of preformed lipid bodies”.
On to `C[C@@H]1C[C@@H]([C@H](O)CC2CC(=O)NC(=O)C2)C(=O)[C@@H](C)C1` [cycloheximide], for which the “cytotoxicity” value in the data set on human leukocytes is given as “not cytotoxic”. Further, in the data set with human neutrophils [2] (setting [3]), the inhibition at 1 µM was 17% and the “lipid bodies (mean ± SEM)/cell” value worked out at 9.8 ± 0.3 lipid bodies/cell. Besides, in the data set with human neutrophils [2] (setting [4]), the inhibition at 10 µM turned out to be 30% and the “lipid bodies (mean ± SEM)/cell” value came to 9.2 ± 0.3 lipid bodies/cell. Moreover, in the data set with human neutrophils [2] (setting [5]), testing at 1 µM gave an inhibition of 22% and the “lipid bodies (mean ± SEM)/cell” value came to 9.0 ± 0.3 lipid bodies/cell. In the data set on human neutrophils [2] (setting [6]), at 10 µM the inhibition was 38% and the “lipid bodies (mean ± SEM)/cell” value came to 8.3 ± 0.3 lipid bodies/cell. For the same molecule, in the data set with human neutrophils [2], the “inhibition of arachidonic acid-induced lipid body formation” value was “significantly inhibited”, the “inhibition of oleic acid-induced lipid body formation” value is on record as “significantly inhibited” and the “effect on numbers of preformed lipid bodies” value is given as “did not alter numbers of preformed lipid bodies”.
Regarding `CCCCCCCCCCCCCCCCOCC(COP(=O)([O-])OCC[N+](C)(C)C)OC(C)=O` (stereo not shown) [platelet activating factor], the “induction of lipid body formation” value with human eosinophils is “elicit lipid body formation”; in the data set with human neutrophils [1], “Lipid body formation is also induced”; with human neutrophils [1] (listed as PAF), “elicit lipid body formation”.
